Literature values, collected in US10086032B2, “Method for preparing a Camellia nitidissima Chi lipid-lowering and hypoglycemic agent” (Shenzhen Violin Technology Co., Ltd., priority 2014, dated 2018).

Tested on: model rat with hyperlipidemia
Details: high dose group; lovastatin 0.01 g/kg; 43 days intragastric gavage

CC[C@H](C)C(=O)O[C@H]1C[C@@H](C)C=C2C=C[C@H](C)[C@H](CC[C@@H]3C[C@@H](O)CC(=O)O3)[C@H]21 [lovastatin]
HDL-C content of serum: enhance HDL-C content of serum in model rat with hyperlipidemia
